Assay results reported in patent publication US10563263B2, “Genetic polymorphisms associated with statin response and cardiovascular diseases, methods of detection and uses thereof” (CELERA CORPORATION, priority 2010, dated 2020).

System: CVD (CHD or stroke)
Assay: WOSCOPS: SNP by pravastatin treatment interaction, logistic regression (synergy index), CVD endpoint
Assay type: in vivo, human
Details: for OR (SNP x pravastatin treatment interaction): Imputed, WOSCOPS pravastatin vs placebo; for OR: WOSCOPS
Source text: CARE was a secondary prevention trial and WOSCOPS was a primary prevention trial.
The CHD endpoint was defined in the analyses herein of CARE as a composite endpoint of fatal CHD, definite non-fatal MI, or revascularization, and was defined in the analyses herein of WOSCOPS as a composite endpoint of death from CHD, nonfatal MI, or revascularization. In both the CARE and WOSCOPS analyses herein, the CVD endpoint was defined as a composite endpoint of CHD or stroke. […] Revascularization, which can include percutaneous transluminal coronary angioplasty (PTCA), stent placement, and coronary artery bypass graft (CABG), are medical interventions that indicate the presence of CHD.
Cohort and case-only study designs were used to identify SNPs associated with response to statin treatment.
For each SNP, a logistic regression model having treatment status as the dependent variable and SNP as the independent predictor variable was performed, with terms for age, sex and race included in the model as covariates. The anti-log of the regression coefficient corresponding to the SNP is an estimate of the synergy index (SI) (Davis et al., “Imputing gene-treatment interactions when the genotype distribution is unknown using case-only and putative placebo analyses-a new method for the Genetics of Hypertension Associated Treatment (GenHAT) study”, Statistics in Medicine 23: (2004), pages 2413-2427). The SI is a ratio of odds ratios: for example in the CARE and WOSCOPS studies, the SI represents the factor by which the odds-ratio of statin treatment, compared with placebo, among major homozygous individuals is multiplied by in order to obtain the odds-ratio of treatment vs. placebo among heterozygous individuals; and multiplied by a second time to obtain the odds-ratio of treatment vs. placebo in minor homozygous individuals. […] In a randomized clinical trial, genotype and treatment are independent by design.

CC[C@H](C)C(=O)O[C@H]1C[C@H](O)C=C2C=C[C@H](C)[C@H](CC[C@@H](O)C[C@@H](O)CC(=O)O)[C@H]21 [Pravastatin, pravastatin]
OR (SNP x pravastatin treatment interaction) (SNP rs12820589, allele A1=G, model DOM): 1.936 | OR (SNP x pravastatin treatment interaction) (SNP rs12831292, allele A1=G, model ADD): 0.6841 | OR (SNP x pravastatin treatment interaction) (SNP rs12831292, allele A1=G, model DOM): 0.62 | OR (SNP x pravastatin treatment interaction) (SNP rs13012636, allele A1=G, model REC): 1.901 | OR (SNP x pravastatin treatment interaction) (SNP rs13038146, allele A1=C, model ADD): 1.407 | OR (SNP x pravastatin treatment interaction) (SNP rs13038146, allele A1=C, model REC): 1.414 | OR (SNP x pravastatin treatment interaction) (SNP rs13089860, allele A1=A, model DOM): 0.6221 | OR (SNP x pravastatin treatment interaction) (SNP rs13102419, allele A1=T, model REC): 1.668 | OR (synergy index), WOSCOPS, Prava vs Placebo (SNP rs13121569 (A1 G, A2 A), dom model, CVD endpoint, Caseonly): 0.78 | OR (SNP x pravastatin treatment interaction) (SNP rs13194907, allele A1=A, model ADD): 1.964 | OR (SNP x pravastatin treatment interaction) (SNP rs13194907, allele A1=A, model DOM): 2.136 | OR (SNP x pravastatin treatment interaction) (SNP rs13195745, allele A1=A, model ADD): 1.964 | OR (SNP x pravastatin treatment interaction) (SNP rs13195745, allele A1=A, model DOM): 2.136 | OR (SNP x pravastatin treatment interaction) (SNP rs13265054, allele A1=T, model DOM): 0.6754 | OR (SNP x pravastatin treatment interaction) (SNP rs13282131, allele A1=C, model ADD): 1.415 | OR (SNP x pravastatin treatment interaction) (SNP rs13282131, allele A1=C, model REC): 1.595 | OR (SNP x pravastatin treatment interaction) (SNP rs13387284, allele A1=A, model DOM): 0.5278 | OR (SNP x pravastatin treatment interaction) (SNP rs13401462, allele A1=C, model DOM): 2.137 | OR (SNP x pravastatin treatment interaction) (SNP rs13409045, allele A1=T, model ADD): 0.6931 | OR (marker rs208025, source caseonly, pravastatin vs placebo): 1.52 | OR (marker rs478859, source caseonly, pravastatin vs placebo): 1.33 | OR (marker rs623400, source caseonly, pravastatin vs placebo): 0.62 | OR (marker rs675163, source caseonly, pravastatin vs placebo): 0.71 | OR (marker rs1536506, source caseonly, pravastatin vs placebo): 1.43 | OR (marker rs1866386, source caseonly, pravastatin vs placebo): 0.81 | OR (marker rs2869680, source caseonly, pravastatin vs placebo): 0.70 | OR (marker rs2880563, source caseonly, pravastatin vs placebo): 1.51 | OR (marker rs4251580, source caseonly, pravastatin vs placebo): 0.55 | OR (marker rs4689078, source caseonly, pravastatin vs placebo): 1.45 | OR (marker rs5764592, source caseonly, pravastatin vs placebo): 1.87 | OR (marker rs6040760, source caseonly, pravastatin vs placebo): 1.23 | OR (marker rs7623808, source caseonly, pravastatin vs placebo): 4.22 | OR (marker rs7915250, source caseonly, pravastatin vs placebo): 0.81 | OR (marker rs10106852, source caseonly, pravastatin vs placebo): 1.56 | OR (marker rs10460737, source caseonly, pravastatin vs placebo): 0.10 | OR (marker rs10817479, source caseonly, pravastatin vs placebo): 1.37 | OR (marker rs12286877, source caseonly, pravastatin vs placebo): 2.30 | OR (marker rs12608167, source caseonly, pravastatin vs placebo): 0.66 | OR (marker rs17310169, source caseonly, pravastatin vs placebo): 0.81 | OR (marker rs77638540, source caseonly, pravastatin vs placebo): 0.68 | OR (rs198461 allele C DOM Imputed): 0.4755 | OR (rs208757 allele G ADD Imputed): 1.353 | OR (rs208757 allele G DOM Imputed): 1.453 | OR (rs331555, add, Caseonly, CVD, pravastatin vs placebo): 0.77 | OR (rs1076733, dom, Caseonly, CVD, pravastatin vs placebo): 0.62 | OR (rs1182878, add, Caseonly, CVD, pravastatin vs placebo): 0.75 | OR (rs1474396, dom, Caseonly, CVD, pravastatin vs placebo): 1.73 | OR (rs1782328 allele A ADD Imputed): 0.5789 | OR (rs1796337 allele T DOM Imputed): 0.5422 | OR (rs1798083 allele C DOM Imputed): 0.4733 | OR (rs1798085 allele T DOM Imputed): 0.4727 | OR (rs1798086 allele T DOM Imputed): 0.4689 | OR (rs1798089 allele C REC Imputed): 1.806 | OR (rs1798090 allele C REC Imputed): 1.806 | OR (rs1832222 allele G DOM Imputed): 1.351 | OR (rs1838104 allele A ADD Imputed): 0.6393 | OR (rs1868616 allele G ADD Imputed): 0.7123 | OR (rs1874313 allele A DOM Imputed): 0.6182
